The source of these data is patent publication US20200085778A1, “Agent for Promoting Decomposition and Clearance of Amyloid-Beta” (Kao Corporation, priority 2017, published 2020).

This assay deals with T1, aggregated amyloid-β (amyloid-β peptide, Human, 1-42) (Homo sapiens, UniProt P05067).
T1 construct: An amyloid-β peptide (Human, 1-42, Peptide Institute, Inc.); purchased Peptide Institute, Inc
Kind of assay: thioflavin T (ThT) fluorescence assay of degrading aggregated amyloid. Type of assay: biochemical. The conditions noted are these: final concentration 1, 10, or 100 μM, 37° C. for 7 days, vs 0.5% DMSO control; FIG. 1. As to the method: The direct activity of degrading aggregated amyloid by chlorogenic acid (5-CQA) was examined using a thioflavin T (ThT) fluorescence assay. An amyloid-β peptide (Human, 1-42, Peptide Institute, Inc.) was dissolved in dimethyl sulfoxide (DMSO) to 2.5 mM and was further adjusted to 250 μM with sterile water, followed by incubation at 37° C. for 7 days to promote the aggregation reaction. After the reaction, chlorogenic acid (5-CQA, Cayman Chemical Company) was added to the aggregated amyloid-β (10 mass %) at a final concentration of 1, 10, or 100 μM, followed by further incubation at 37° C. for 7 days. As a control, 0.5% DMSO, which was used as the solvent of the chlorogenic acid, was added. After the reaction, ThT (Sigma-Aldrich, final concentration: 5 μM) dissolved in 50 mM glycine buffer (pH 8.5) was added to the reaction solution in a 96-well plate (ThermoFisher Scientific), followed by a reaction at room temperature for 15 minutes while gently stirring under light shielding. After the reaction, fluorescence was detected at 450 nm (excitation) and 480 nm (emission) using a fluorescence plate reader (Ensight 3400, PerkinElmer Co., Ltd.) to measure the degree of aggregation of amyloid-β.

T1 sequence (P05067 672-713): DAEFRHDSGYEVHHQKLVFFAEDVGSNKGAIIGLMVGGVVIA

As for `O=C(/C=C/c1ccc(O)c(O)c1)O[C@@H]1C[C@](O)(C(=O)O)C[C@@H](O)[C@H]1O` [chlorogenic acid, 5-caffeoylquinic acid], the “activity of degrading aggregated amyloid (degree of aggregation of amyloid-β, ThT fluorescence)” value is given as “has an activity of degrading aggregated amyloid in a dose-dependent manner”.
